Measured values published in patent US20100267561A1, “HERBICIDAL PYRIDAZINONE DERIVATIVES” (priority 2007, published 2010).

Experiments:
[1] = system: canola (Brassica rapa); assay: Test C pre-/postemergence plant response; type: in vivo
Summary of the method: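 Plant response was judged by eye against untreated controls following 15 to 25 days in a controlled growth environment, using 0 for no effect and 100 for complete control. Treatments were made both preemergence and postemergence, the latter on plants of 1- to 4-leaf stage.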

[2] = system: Virginia (V.) dayflower (Commelina virginica); assay: Test E pre-/postemergence plant response; type: in vivo; settings: scale 0 to 100
Summary of the method: (§1)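 Scores are visual estimates of control on a 0 to 100 scale, made against untreated plants 14 to 21 days after treatment in the greenhouse. Application was preemergence to sown seeds or postemergence to 2–18 cm plants (1- to 4-leaf stage), using a surfactant-containing non-phytotoxic solvent formulation.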

[3] = system: Russian thistle (Salsola kali); assay: Test E pre-/postemergence plant response; type: in vivo; settings: Preemergence, scale 0 to 100
Summary of the method: as §1

[4] = system: common sowthistle (Sonchus oleraceous); assay: Test E pre-/postemergence plant response; type: in vivo; settings: scale 0 to 100
Summary of the method: as §1

[5] = system: prickly sida (Sida spinosa); assay: Test E pre-/postemergence plant response; type: in vivo; settings: scale 0 to 100
Summary of the method: as §1

[6] = system: kochia (Kochia scoparia); assay: Test E pre-/postemergence plant response; type: in vivo; settings: scale 0 to 100
Summary of the method: as §1

[7] = system: wild oat (AVEFA, Avena fatua); assay: Test F mixtures with safener cloquintocet-mexyl, pre-/postemergence plant response; type: in vivo; settings: applied alone
From the text: This test evaluated the effect of mixtures of Compound 3, Compound 11, or Compound 12 with the commercial crop safener cloquintocet-mexyl on three plant species. Seeds of test plants consisting of winter wheat (TRZAW, Triticum aestivum), winter barley (HORVX, Hordeum vulgare), and wild oat (AVEFA, Avena fatua) (a weed) were planted into a blend of loam soil and sand and treated preemergence with a directed soil spray using test chemicals formulated in a non-phytotoxic solvent mixture that included a surfactant. At the same time, plants selected from these crop and weed species were treated with postemergence applications of the test chemicals formulated in the same manner. Plants ranged in height from 2 to 18 cm (1- to 4-leaf stage) for postemergence treatments.
Plants were grown in a greenhouse using supplemental lighting to maintain a photoperiod of about 16 hours; daytime and nighttime temperatures were about 24-30° C. and 19-21° C., respectively. Balanced fertilizer was applied through the watering system. Treatments consisted of Compound 3, Compound 11, or Compound 12 and the above mentioned safener alone and in combination using a spray volume of 457 L/ha. Each treatment was replicated three times. Treated plants and controls were maintained in a greenhouse for 14 to 21 days, after which time all treated plants were compared to controls and visually evaluated. Plant response ratings were calculated as the means of the three replicates and are summarized in Tables F1 to F6, and are based on a scale of 0 to 100 where 0 is no effect and 100 is complete control. Because cloquintocet-mexyl alone caused no injury at the rates tested, the expected effect of a mixture of Compound 3 with cloquintocet-mexyl is the same as the observed effect of Compound 3 applied alone.

[8] = Postemergence, 8 g ai/ha, scale 0 to 100, 0 no effect, 100 complete control
[9] = Postemergence, 16 g ai/ha, scale 0 to 100, 0 no effect, 100 complete control
[10] = Postemergence, 31 g ai/ha, scale 0 to 100, 0 no effect, 100 complete control
[11] = Postemergence, 62 g ai/ha, scale 0 to 100, 0 no effect, 100 complete control
[12] = Preemergence, 8 g ai/ha, scale 0 to 100 (0 no effect, 100 complete control)
[13] = Preemergence, 16 g ai/ha, scale 0 to 100 (0 no effect, 100 complete control)
[14] = Preemergence, 31 g ai/ha, scale 0 to 100 (0 no effect, 100 complete control)
[15] = Preemergence, 62 g ai/ha, scale 0 to 100, 0 no effect, 100 complete control

SMILES: CCc1cc(-c2ccc(C(F)(F)F)cc2)nn1-c1c(O)cnn(C)c1=O [Compound 11, 4-[5-ethyl-3-[4-(trifluoromethyl)phenyl]-1H-pyrazol-1-yl]-5-hydroxy-2-methyl-3(2H)-pyridazinone]
- melting point: 202 to 204 °C
- Plant response rating, Canola [1, 8]: 0
- Plant response rating, Canola [1, 9]: 0
- Plant response rating, Canola [1, 10]: 0
- Plant response rating, Canola [1, 11]: 0
- Plant response rating, Canola [1, 12]: 0
- Plant response rating, Canola [1, 13]: 0
- Plant response rating, Canola [1, 14]: 0
- Plant response rating, Canola [1, 15]: 0
- Plant response rating, Dayflower, V. ([2]; 4 g ai/ha, Postemergence): 0
- Plant response rating, Dayflower, V. ([2]; 8 g ai/ha, Preemergence): 0
- Plant response rating, Dayflower, V. ([2]; 16 g ai/ha, Preemergence): 0
- Plant response rating, Dayflower, V. ([2]; 31 g ai/ha, Preemergence): 0
- Plant response rating, Dayflower, V. ([2]; Postemergence, 8 g ai/ha): 0
- Plant response rating, Dayflower, V. ([2]; Postemergence, 16 g ai/ha): 0
- Plant response rating, Dayflower, V. ([2]; Postemergence, 31 g ai/ha): 0
- Plant response rating, Dayflower, V. ([2]; Preemergence, 4 g ai/ha): 0
- Plant response rating, Thistle, Russian ([3]; 31 g ai/ha): 0
- Plant response rating, Sowthistle ([4]; 4 g ai/ha, Postemergence): 0
- Plant response rating, Sowthistle ([4]; 16 g ai/ha, Preemergence): 0
- Plant response rating, Sowthistle ([4]; Postemergence, 8 g ai/ha): 0
- Plant response rating, Sowthistle ([4]; Postemergence, 16 g ai/ha): 0
- Plant response rating, Sowthistle ([4]; Postemergence, 31 g ai/ha): 0
- Plant response rating, Prickly Sida ([5]; 4 g ai/ha, Postemergence): 0
- Plant response rating, Prickly Sida ([5]; 16 g ai/ha, Preemergence): 0
- Plant response rating, Prickly Sida ([5]; 31 g ai/ha, Preemergence): 0
- Plant response rating, Prickly Sida ([5]; Postemergence, 8 g ai/ha): 0
- Plant response rating, Prickly Sida ([5]; Postemergence, 16 g ai/ha): 0
- Plant response rating, Prickly Sida ([5]; Postemergence, 31 g ai/ha): 0
- Plant response rating, Prickly Sida ([5]; Preemergence, 4 g ai/ha): 0
- Plant response rating, Kochia ([6]; 4 g ai/ha, Postemergence): 0
- Plant response rating, Kochia ([6]; 16 g ai/ha, Preemergence): 0
- Plant response rating, Kochia ([6]; 31 g ai/ha, Preemergence): 0
- Plant response rating, Kochia ([6]; Postemergence, 8 g ai/ha): 0
- Plant response rating, Kochia ([6]; Postemergence, 16 g ai/ha): 0
- Plant response rating, Kochia ([6]; Postemergence, 31 g ai/ha): 0
- Plant response rating, Kochia ([6]; Preemergence, 4 g ai/ha): 0
- AVEFA Obsd. (observed effect) plant response rating, scale 0 to 100 ([7]; postemergence, 4 g a.i./ha): 75
- AVEFA Obsd. (observed effect) plant response rating, scale 0 to 100 ([7]; postemergence, 8 g a.i./ha): 97
- AVEFA Obsd. (observed effect) plant response rating, scale 0 to 100 ([7]; postemergence, 16 g a.i./ha): 98
- AVEFA Obsd. (observed effect) plant response rating, scale 0 to 100 ([7]; preemergence, 4 g a.i./ha): 58
- AVEFA Obsd. (observed effect) plant response rating, scale 0 to 100 ([7]; preemergence, 8 g a.i./ha): 77
- AVEFA Obsd. (observed effect) plant response rating, scale 0 to 100 ([7]; preemergence, 16 g a.i./ha): 93

SMILES: CCc1c(C)c(-c2ccc(Cl)cc2)nn1-c1c(O)cnn(C)c1=O [Compound 26, 4-[3-(4-chlorophenyl)-5-ethyl-4-methyl-1H-pyrazol-1-yl]-5-hydroxy-2-methyl-3(2H)-pyridazinone]
- melting point: 227 to 229 °C
- Plant response rating, Canola [1, 8]: 0
- Plant response rating, Canola [1, 9]: 0
- Plant response rating, Canola [1, 10]: 0
- Plant response rating, Canola [1, 11]: 0
- Plant response rating, Canola [1, 14]: 0
- Plant response rating, Canola [1, 15]: 0

SMILES: Cc1cc(-c2ccc(Cl)cc2)nn1-c1c(OC(=O)C(C)C)cnn(C)c1=O [Compound 34]
- Plant response rating, Canola [1, 12]: 0
- Plant response rating, Canola [1, 13]: 0
- Plant response rating, Canola [1, 14]: 0
- Plant response rating, Canola [1, 15]: 0
- Plant response rating, Dayflower, V. ([2]; 16 g ai/ha, Preemergence): 0
- Plant response rating, Dayflower, V. ([2]; 31 g ai/ha, Preemergence): 0
- Plant response rating, Dayflower, V. ([2]; 62 g ai/ha, Preemergence): 0
- Plant response rating, Dayflower, V. ([2]; Postemergence, 8 g ai/ha): 0
- Plant response rating, Dayflower, V. ([2]; Postemergence, 16 g ai/ha): 0
- Plant response rating, Dayflower, V. ([2]; Postemergence, 31 g ai/ha): 0
- Plant response rating, Dayflower, V. ([2]; Postemergence, 62 g ai/ha): 0
- Plant response rating, Thistle, Russian ([3]; 16 g ai/ha): 0
- Plant response rating, Thistle, Russian ([3]; 31 g ai/ha): 0
- Plant response rating, Thistle, Russian ([3]; 62 g ai/ha): 0
- Plant response rating, Sowthistle ([4]; 16 g ai/ha, Preemergence): 0
- Plant response rating, Sowthistle ([4]; 31 g ai/ha, Preemergence): 0
- Plant response rating, Sowthistle ([4]; 62 g ai/ha, Preemergence): 0
- Plant response rating, Sowthistle ([4]; Postemergence, 8 g ai/ha): 0
- Plant response rating, Sowthistle ([4]; Postemergence, 16 g ai/ha): 0
- Plant response rating, Sowthistle ([4]; Postemergence, 31 g ai/ha): 0
- Plant response rating, Sowthistle ([4]; Postemergence, 62 g ai/ha): 0
- Plant response rating, Prickly Sida ([5]; 16 g ai/ha, Preemergence): 0
- Plant response rating, Prickly Sida ([5]; 31 g ai/ha, Preemergence): 0
- Plant response rating, Prickly Sida ([5]; 62 g ai/ha, Preemergence): 0
- Plant response rating, Prickly Sida ([5]; Postemergence, 8 g ai/ha): 0
- Plant response rating, Prickly Sida ([5]; Postemergence, 16 g ai/ha): 0
- Plant response rating, Prickly Sida ([5]; Postemergence, 31 g ai/ha): 0
- Plant response rating, Prickly Sida ([5]; Postemergence, 62 g ai/ha): 0
- Plant response rating, Kochia ([6]; 16 g ai/ha, Preemergence): 0
- Plant response rating, Kochia ([6]; 31 g ai/ha, Preemergence): 0
- Plant response rating, Kochia ([6]; 62 g ai/ha, Preemergence): 0
